Measured values published in ChEMBL document CHEMBL1201862, “PubChem BioAssay data set” (2004).
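Five compound concentrations were applied to cells in 96-well plates for 48 hours; endpoints were derived by simple linear interpolation of the resulting dose-response curve. Here, GI50 denotes the concentration required for 50% inhibition of growth.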 Active and inactive are the calls of the source. Cut-off read from the data, not from the text of the source: active = GI50 up to about 1.1 µM and inactive = higher.

Legend:
Assay in all cases: inhibition of tumour cell growth, NCI panel, 48 h
[1] = test system: HL-60
[2] = test system: UACC-257
[3] = test system: NCI/ADR-RES
[4] = test system: SNB-19
[5] = test system: ACHN
[6] = test system: COLO 205
[7] = test system: Malme-3M
[8] = test system: HCC 2998
[9] = test system: HCT-15
[10] = test system: Hs-578T
[11] = test system: T47D
[12] = test system: HT-29
[13] = test system: SK-OV-3
[14] = test system: SF-539
[15] = test system: CAKI-1
[16] = test system: RPMI-8226
[17] = test system: OVCAR-4
[18] = test system: K562
[19] = test system: A498
[20] = test system: A549

Structure (SMILES)	GI50 [1]	GI50 [2]	GI50 [3]	GI50 [4]	GI50 [5]	GI50 [6]	GI50 [7]	GI50 [8]	GI50 [9] [µM]	GI50 [10]	GI50 [11]	GI50 [12]	GI50 [13]	GI50 [14]	GI50 [15]	GI50 [16]	GI50 [17]	GI50 [18]	GI50 [19]	GI50 [20]
CN(C)CCNC(=O)c1ccc(Cl)c2cc3ccccc3nc12	0.608 µM (active)	0.885 µM (active)	0.927 µM (active)	0.998 µM (active)	0.424 µM (active)	0.446 µM (active)	0.731 µM (active)	1.16 µM (inactive)	0.54	0.759 µM (active)	3.01 µM (inactive)	0.422 µM (active)	2.06 µM (inactive)	0.946 µM (active)	0.448 µM (active)	0.463 µM (active)	0.653 µM (active)	0.553 µM (active)	0.143 µM (active)	0.389 µM (active)
Cc1ccc(C(=O)/C=C2\Nc3cccnc3NC2=O)cc1	> 100 µM (inactive)	> 100 µM (inactive)	> 100 µM (inactive)	> 100 µM (inactive)	> 100 µM (inactive)	> 100 µM (inactive)	95.9 µM (inactive)	> 100 µM (inactive)	> 100	37.8 µM (inactive)	> 100 µM (inactive)	> 100 µM (inactive)	> 100 µM (inactive)	60.4 µM (inactive)	> 100 µM (inactive)	> 100 µM (inactive)	> 100 µM (inactive)	> 100 µM (inactive)	> 100 µM (inactive)	> 100 µM (inactive)
COc1ccc(Nc2c(C#N)c3n(c4ccccc24)c2ccccc2[n+]3C)cc1OC	3.84 µM (inactive)	3.78 µM (inactive)	2.71 µM (inactive)	3.92 µM (inactive)	1.96 µM (inactive)	2.19 µM (inactive)	3.82 µM (inactive)	4.17 µM (inactive)	1.88	2.86 µM (inactive)	6.05 µM (inactive)	3.13 µM (inactive)	5.14 µM (inactive)	1.84 µM (inactive)	1.93 µM (inactive)	1.98 µM (inactive)	4.68 µM (inactive)	2.33 µM (inactive)	4.31 µM (inactive)	3.03 µM (inactive)
Cc1ccc(F)c2[nH]c(-c3ccccc3)cc(=O)c12	3.39 µM (inactive)	58.5 µM (inactive)	3.82 µM (inactive)	9.98 µM (inactive)	8.77 µM (inactive)	6.81 µM (inactive)	17.9 µM (inactive)	11.9 µM (inactive)	1.64	14.9 µM (inactive)	11.3 µM (inactive)	4.57 µM (inactive)	5.43 µM (inactive)	4.34 µM (inactive)	> 100 µM (inactive)	3.96 µM (inactive)	> 70.5 µM (inactive)	2.23 µM (inactive)	39.4 µM (inactive)	4.97 µM (inactive)
COc1cc2c(c(OC)c1OC)C(=O)[C@H](Br)[C@H]2NC(=O)NCCCl	75.5 µM (inactive)	> 100 µM (inactive)	> 100 µM (inactive)	> 100 µM (inactive)	> 100 µM (inactive)	50.8 µM (inactive)	> 100 µM (inactive)	> 100 µM (inactive)	62.5	> 100 µM (inactive)	> 100 µM (inactive)	> 100 µM (inactive)	59 µM (inactive)	> 100 µM (inactive)	> 100 µM (inactive)	> 100 µM (inactive)	71 µM (inactive)	58.2 µM (inactive)	> 100 µM (inactive)	79.6 µM (inactive)
COC1=CC(=O)c2c(O)c3c(c(O)c2C1=O)C=C(C)OC3O (stereo not given)	0.731 µM (active)	0.24 µM (active)	1.51 µM (inactive)	2.48 µM (inactive)	2.1 µM (inactive)	0.222 µM (active)	0.277 µM (active)	1.56 µM (inactive)	0.349	2.64 µM (inactive)	2.13 µM (inactive)	0.541 µM (active)	8.45 µM (inactive)	1.58 µM (inactive)	3.52 µM (inactive)	1.5 µM (inactive)	1.92 µM (inactive)	1.44 µM (inactive)	2.12 µM (inactive)	1.42 µM (inactive)
CC1(C)CC2(C)ON=C(c3ccccc3)N2c2ccccc2N1 (stereo not given)	19.7 µM (inactive)	24.4 µM (inactive)	23.4 µM (inactive)	24.2 µM (inactive)	19.5 µM (inactive)	19.5 µM (inactive)	20.5 µM (inactive)	35.2 µM (inactive)	29.6	18.8 µM (inactive)	21.9 µM (inactive)	16.4 µM (inactive)	21.7 µM (inactive)	19.5 µM (inactive)	20.8 µM (inactive)	29 µM (inactive)	39.8 µM (inactive)	19.8 µM (inactive)	28.6 µM (inactive)	25.1 µM (inactive)
O=N/N=c1\o[n-][n+](CCc2ccccc2)c1Cc1/c(=N/N=O)o[n-][n+]1CCc1ccccc1	30.8 µM (inactive)	> 100 µM (inactive)	> 100 µM (inactive)	28.2 µM (inactive)	31.4 µM (inactive)	> 100 µM (inactive)	24.2 µM (inactive)	44.9 µM (inactive)	> 100	28.7 µM (inactive)	27.9 µM (inactive)	76 µM (inactive)	34.4 µM (inactive)	20.7 µM (inactive)	> 100 µM (inactive)	43.1 µM (inactive)	16.8 µM (inactive)	25.2 µM (inactive)	46.8 µM (inactive)	> 100 µM (inactive)
COc1cc(NCc2ccc3nc(N)nc(N)c3c2C)cc(OC)c1OC	0.043 µM (active)	0.14 µM (active)	2.74 µM (inactive)	0.0597 µM (active)	0.000395 µM (active)	1.07 µM (active)	1.55 µM (inactive)	0.109 µM (active)	0.025	0.0993 µM (active)	0.0658 µM (active)	0.0267 µM (active)	2.84 µM (inactive)	0.0269 µM (active)	0.194 µM (active)	0.0562 µM (active)	22.4 µM (inactive)	0.038 µM (active)	2.39 µM (inactive)	0.0407 µM (active)
Cc1cn(C2CC(O)C(CO)O2)c(=O)[nH]c1=O (stereo not given)	> 4760 µM (inactive)	3760 µM (inactive)	2260 µM (inactive)	1730 µM (inactive)	1840 µM (inactive)	3090 µM (inactive)	2410 µM (inactive)	3680 µM (inactive)	3370	3900 µM (inactive)	> 4080 µM (inactive)	4430 µM (inactive)	2480 µM (inactive)	3670 µM (inactive)	1420 µM (inactive)	2050 µM (inactive)	> 3890 µM (inactive)	1540 µM (inactive)	> 4670 µM (inactive)	689 µM (inactive)
